Where two headings read alike, the source gives them in different places.

For orientation: inhibition means the relative decrease from the control value, in per cent.

One test addresses T1, kinase domain of PDGFRβ (Homo sapiens, UniProt P09619).
T1 construct: The kinase domain of PDGFRβ was assayed in 50 mM Hepes; purchased Invitrogen P3082
Kind of test: Inhibition of PDGFRb kinase signaling in an in vitro biochemical assay (alphascreen). The note with it: tested at about 1 μM, read-out: PDGFRβ percent inhibition. The protocol:
(§1) The IC50 values for the inhibition of RTKs were determined in the alphascreen format measuring the inhibition by compound of phosphate transfer to a substrate by the respective enzyme. Briefly, the respective RTK domain purchased as human recombinant protein (cKIT Upstate #14-559, PDGFRb Invitrogen #P3082) were incubated with serial dilutions of compound in the presence of substrate and ATP concentrations within 3 times the Km of the enzyme.
(§2) Alphascreen PY20 beads were added to the stopped cKIT reactions and PY20 Ab/Protein A Alphascreen beads were added to the PDGFRβ stopped reactions. Both reactions were incubated overnight and read on the Alphascreen reader.
A general note: In Alpha technology, singlet oxygen from a donor bead excites a nearby acceptor bead.

The target of the next test is T2, kinase domain of cKIT (Homo sapiens, UniProt P10721).
T2 construct: The kinase domain of cKIT was assayed in 50 mM Hepes; purchased Upstate 14-559
As to the kind of experiment: Inhibition of cKIT kinase signaling in an in vitro biochemical assay (alphascreen). The note with it: tested at about 1 μM, read-out: cKit percent inhibition. The protocol:
as §1, §2

Test [1] addresses T3, cytoplasmic domain of the human CSF-1R (Homo sapiens, UniProt P07333).
T3 construct: Recombinant protein corresponding to the cytoplasmic domain of the human CSF-1R; purchased Invitrogen Corporation, Carlsbad, Calif; PV3249
T3 sequence (P07333 539-972 limits assumed): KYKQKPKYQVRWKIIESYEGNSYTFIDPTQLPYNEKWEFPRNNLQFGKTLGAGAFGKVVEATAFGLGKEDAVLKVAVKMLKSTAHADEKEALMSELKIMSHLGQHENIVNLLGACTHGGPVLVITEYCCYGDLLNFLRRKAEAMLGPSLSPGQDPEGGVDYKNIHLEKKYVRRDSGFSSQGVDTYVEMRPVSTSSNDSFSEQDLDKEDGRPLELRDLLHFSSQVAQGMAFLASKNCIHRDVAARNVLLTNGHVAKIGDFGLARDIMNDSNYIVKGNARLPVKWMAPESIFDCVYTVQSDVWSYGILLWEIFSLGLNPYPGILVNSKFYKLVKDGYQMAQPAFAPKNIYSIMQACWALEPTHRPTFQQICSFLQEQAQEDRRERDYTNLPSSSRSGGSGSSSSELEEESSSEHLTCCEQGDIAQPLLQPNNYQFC
As to the kind of experiment: In vitro kinase assay for colony stimulating factor-1 receptor (AlphaScreen). The test is classed as biochemical. Particulars: tested at about 1 μM, read-out: CSF-1R percent inhibition. The protocol: The kinase activity of various protein tyrosine kinases can be measured by providing ATP and a suitable peptide or protein tyrosine-containing substrate, and assaying the transfer of phosphate moiety to the tyrosine residue. Recombinant protein corresponding to the cytoplasmic domain of the human CSF-1R was purchased from Invitrogen Corporation, Carlsbad, Calif. U.S.A. (#PV3249). For each assay, test compounds were serially diluted, starting at 25 μM with 3 fold dilutions, in DMSO in 384 well plates then mixed with an appropriate kinase reaction buffer consisting of 50 mM Hepes, 5 mM MgCl2, 10 mM MnCl2, 0.1% BSA, pH 7.5, 1.0 mM dithiothreitol, 0.01% Tween 80 plus 1 μM ATP. […] Added to the stopped reaction mix was 30 μL of PT66 Alphascreen beads (Perkin Elmer, Boston, Mass., U.S.A.). The reaction was incubated overnight and read on the Envision (Perkin Elmer). Phosphorylated peptide product was measured with the AlphaScreen system (Perkin Elmer) using acceptor beads coated with anti-phosphotyrosine antibody PT66 and donor beads coated with streptavidin that emit a fluorescent signal at the 520-620 nm emission wave length if in close proximity.
CSF-1R kinase was added at final concentration of 4 nM.

T1 sequence (P09619 600-962 limits assumed): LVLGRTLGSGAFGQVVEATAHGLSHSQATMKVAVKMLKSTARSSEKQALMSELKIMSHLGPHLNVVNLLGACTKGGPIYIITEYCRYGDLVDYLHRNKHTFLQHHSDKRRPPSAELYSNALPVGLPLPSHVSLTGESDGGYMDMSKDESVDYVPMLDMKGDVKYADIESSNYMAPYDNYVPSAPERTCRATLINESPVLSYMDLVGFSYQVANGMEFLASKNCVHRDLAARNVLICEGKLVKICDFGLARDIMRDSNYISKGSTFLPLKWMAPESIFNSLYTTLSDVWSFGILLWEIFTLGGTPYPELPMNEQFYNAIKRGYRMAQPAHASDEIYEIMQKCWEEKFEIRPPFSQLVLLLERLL
T2 sequence (P10721 589-937 limits assumed): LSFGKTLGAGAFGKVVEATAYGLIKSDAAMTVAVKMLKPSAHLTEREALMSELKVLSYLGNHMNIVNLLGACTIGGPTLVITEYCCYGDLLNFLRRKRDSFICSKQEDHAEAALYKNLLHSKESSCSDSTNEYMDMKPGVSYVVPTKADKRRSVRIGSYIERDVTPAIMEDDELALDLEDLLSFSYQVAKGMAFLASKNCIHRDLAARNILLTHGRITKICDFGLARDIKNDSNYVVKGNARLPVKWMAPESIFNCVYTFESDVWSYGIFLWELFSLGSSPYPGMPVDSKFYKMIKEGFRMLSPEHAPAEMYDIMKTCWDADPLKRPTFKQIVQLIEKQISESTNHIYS

Take `CNC(=O)c1cc(Oc2ccc3nc(NCc4cccnc4)oc3c2)ccn1` [Compound 59, 4-{2-[(Pyridin-3-ylmethyl)-amino]-benzooxazol-6-yloxy}-pyridine-2-carboxylic acid methylamide]: the inhibition at 1 µM at kinase domain of PDGFRβ is 0%; at kinase domain of cKIT, 21%; in test [1], 97%.
The corresponding values for `CNC(=O)c1cc(Oc2ccc3nc(N[C@H]4CCN(C(C)=O)C4)sc3c2)ccn1` [Example 305, (S)-4-(2-(1-acetylpyrrolidin-3-ylamino)benzo[d]thiazol-6-yloxy)-N-methylpicolinamide] are 7%, 15% and 87%.
For `CNC(=O)c1cc(Oc2ccc3nc(N[C@@H](C(=O)OC)c4ccccc4)oc3c2)ccn1` [Compound 53, (R)-[6-(2-Methylcarbamoyl-pyridin-4-yloxy)-benzooxazol-2-ylamino]-phenyl-acetic acid methyl ester], in that order: 0%, 21% and 95%.
With `CNC(=O)c1cc(Oc2ccc3nc(NC4CCN(c5ccccc5)CC4)oc3c2)ccn1` [Compound 107, 4-[2-(1-Phenyl-piperidin-4-ylamino)-benzooxazol-6-yloxy]-pyridine-2-carboxylic acid methylamide], the inhibition at 1 µM on kinase domain of PDGFRβ worked out at 0%; on kinase domain of cKIT, 8%; in test [1], 67%.
Consider `CNC(=O)c1cc(Oc2ccc3nc(NC[C@@H](C)O)sc3c2)ccn1` [Compound 99], for which the inhibition at 1 µM turned out to be 0% on kinase domain of PDGFRβ (compounds of Table 3), 0% on kinase domain of cKIT (compounds of Table 3) and 86% in test [1] (compounds of Table 3).
For `CNC(=O)c1cc(Oc2ccc3nc(N[C@H]4CCCC[C@H]4NC(=O)[C@@H]4CCCN4C)sc3c2)ccn1` [Example 313, N-methyl-4-(2-((1S,2R)-2-((S)-1-methylpyrrolidine-2-carboxamido)cyclohexylamino)benzo[d]thiazol-6-yloxy)picolinamide], the values for the inhibition at 1 µM (on kinase domain of PDGFRβ; on kinase domain of cKIT; in test [1]) were 2%, 23% and 52%, respectively.
Turning to `CNC(=O)c1cc(Oc2ccc3nc(NC(=O)c4cccc5c4OCCO5)oc3c2)ccn1` [Compound 110, 4-{2-[(2,3-Dihydro-benzo-[1,4]dioxine-5-carbonyl)-amino]-benzooxazol-6-yloxy}-pyridine-2-carboxylic acid methylamide], the inhibition at 1 µM on kinase domain of PDGFRβ turned out to be 8%; on kinase domain of cKIT, 16%; in test [1], 85%.
In the case of `CNC(=O)c1cc(Oc2ccc3nc(NCCN4CCCC4)oc3c2)ccn1` [Compound 63, 4-[2-(2-Pyrrolidin-1-yl-ethylamino)-benzooxazol-6-yloxy]-pyridin-2-carboxylic acid methylamide], the inhibition at 1 µM amounted to 3% at kinase domain of PDGFRβ, 6% on kinase domain of cKIT and 45% in test [1].
As to `N#Cc1cc(Oc2ccc3nc(N[C@@H]4CCCC[C@H]4O)sc3c2)ccn1` [Example 226, 4-(2-((1R,2R)-2-hydroxycyclohexylamino)benzo[d]thiazol-6-yloxy)picolinonitrile], the inhibition at 1 µM at kinase domain of PDGFRβ (compounds of Table 3) worked out at 0%; on kinase domain of cKIT (compounds of Table 3), 20%; in test [1] (compounds of Table 3) it was 80%.
For `CNC(=O)c1cc(Oc2ccc3nc(NC4CCCCCCC4)sc3c2)ccn1` [Compound 129], in that order: 99%, 99% and 100%.
Consider `Cn1cc(-c2cc(Oc3ccc4nc(N[C@@H]5CCCc6ccccc65)sc4c3)ccn2)cn1` [Example 363, (R)-6-(2-(1-methyl-1H-pyrazol-4-yl)pyridin-4-yloxy)-N-(1,2,3,4-tetrahydronaphthalen-1-yl)benzo[d]thiazol-2-amine], for which the inhibition at 1 µM is 99% on kinase domain of PDGFRβ, 100% on kinase domain of cKIT and 100% in test [1].
For the compound `CNC(=O)c1cc(Oc2ccc3nc(N[C@H]4CC[C@@H](NC(=O)c5ccccc5)CC4)sc3c2)ccn1` [Compound 135], the inhibition at 1 µM came out at 11% on kinase domain of PDGFRβ (compounds of Table 3), 21% at kinase domain of cKIT (compounds of Table 3) and 75% in test [1] (compounds of Table 3).
The corresponding values for `CNC(=O)c1cc(Oc2ccc3nc(NC[C@H](C)O)sc3c2)ccn1` [Compound 100] are 6%, 0% and 81%.
For `CC(=O)N[C@H]1CCN(c2cc(Oc3ccc4nc(N[C@@H]5CCCC[C@H]5O)sc4c3)ccn2)C1` [Cmpd 178, N-((S)-1-(4-(2-((1R,2R)-2-hydroxycyclohexylamino)benzo[d]thiazol-6-yloxy)pyridin-2-yl)pyrrolidin-3-yl)acetamide], in that order: -3%, 17% and 82%.
Take `CNC(=O)c1cc(Oc2ccc3nc(Nc4ccc5c(c4)OCO5)oc3c2)ccn1` [Compound 95, 4-[2-(Benzo[1,3]dioxol-5-yl-amino)-benzooxazol-6-yloxy]-pyridine-2-carboxylic acid methylamide]: the inhibition at 1 µM is 8% at kinase domain of PDGFRβ, 40% at kinase domain of cKIT and 98% in test [1].
The corresponding values for `CNC(=O)c1cc(Oc2ccc3nc(Nc4ccc(Cl)c(C(F)(F)F)c4)sc3c2)ccn1` [Compound 126, 4-[2-(4-Chloro-3-trifluoromethyl-phenylamino)-benzothiazol-6-yloxy]-pyridine-2-carboxylic acid methylamide] are 99%, 83% and 68%.
For `CNC(=O)c1cc(Oc2ccc3nc(N[C@@H](C(=O)NC)c4ccccc4)oc3c2)ccn1` [Compound 36, 4-{2-[((R)-Methylcarbamoyl-phenyl-methyl)-amino]-benzo-oxazol-6-yloxy}-pyridine-2-carboxylic acid methylamide], in that order: 6%, 0% and 78%.
`CNC(=O)c1cc(Oc2ccc3nc(NCC4(C(=O)NC)CCCCC4)oc3c2)ccn1` [Compound 112, 4-{2-[(1-Methylcarbamoyl-cyclohexylmethyl)-amino]-benzooxazol-6-yloxy}-pyridine-2-carboxylic acid methylamide]: the results for the inhibition at 1 µM (at kinase domain of PDGFRβ; on kinase domain of cKIT; in test [1]) were 5%, 0% and 28%, respectively.
As for `Cn1nccc1-c1cnccc1Oc1ccc2nc(N[C@@H]3CCCC[C@H]3O)sc2c1` [Example 191], the inhibition at 1 µM on kinase domain of PDGFRβ (compounds of Table 3) turned out to be 15%; on kinase domain of cKIT (compounds of Table 3) it was 19%; in test [1] (compounds of Table 3), 45%.
Consider `O=C(O)c1cc(Oc2ccc3nc(NCC4CCCCC4)oc3c2)ccn1` [Compound 60, 4-[2-(Cyclohexylmethyl-amino)-benzooxazol-6-yloxy]-pyridine-2-carboxylic acid], for which the inhibition at 1 µM turned out to be 2% on kinase domain of PDGFRβ, 6% on kinase domain of cKIT and 92% in test [1].
As to `O[C@@H]1CCCC[C@H]1Nc1nc2ccc(Oc3ccnc(N4CCCCC4)c3)cc2s1` [Cmpd 174, (1R,2R)-2-(6-(2-(piperidin-1-yl)pyridin-4-yloxy)benzo[d]thiazol-2-ylamino)cyclohexanol], the inhibition at 1 µM on kinase domain of PDGFRβ (compounds of Table 3) was 3%; on kinase domain of cKIT (compounds of Table 3) it was 18%; in test [1] (compounds of Table 3), 86%.
The corresponding values for `CNC(=O)c1cc(Oc2ccc3nc(N[C@H]4CC[C@@H](NC(=O)[C@@H]5CCCO5)CC4)sc3c2)ccn1` [Compound 136] are 0%, 3% and 86%.

The record behind these values is patent publication US8173689B2 (Novartis AG, priority 2006, dated 2012).
